According to patent US5603917A, “Methods for the in vivo measurement of the concentration of NMR-detectable xenobiotic compounds” (Bracco International B. V., priority 1994, dated 1997):
Values joined by “and” are separate entries in the source; they are usually repeats but may differ in a detail not shown here. Equal values may be shown once.

Assays:
[1] = Blood sampling with in vitro assay of ^153 Gd-labeled ProHance® and ^99m Tc(DTPA), elimination from rat blood pool (validation experiment); assay type: in vivo; details: rats #5 to #7; blood samples; simultaneous intravenous injection; same values obtained for ^153 Gd and ^99m Tc
Description: (§1) Runs involving simultaneous intravenous injection administrations of 0.5 mmol/kg ProHance®, ^153 Gd-labeled ProHance® and ^99m Tc(DTPA) (Techneplex™, technetium-diethylenetriamine pentaacetic acid), the latter to determine glomerular filtration rate by in vitro methods as a validation experiment, were also carried out. In these runs, rat blood samples and tail T1 data were acquired at the same time intervals from the same rat, and with multiple subjects (n=3). The blood samples were assayed in vitro to determine the amounts of ^153 Gd-labeled ProHance® and ^99m Tc(DTPA) in the blood, and the percentage changes in the blood pool concentrations of ^153 Gd-labeled ProHance® and ^99m Tc(DTPA) were plotted as a function of time to obtain the T1/2 values. The T1/2 data were also calculated from the slopes of the log(1/T1 -1/T10) versus time plots. These two sets of rat T1/2 data are shown in Table 1, and are also compared in FIG. 2.

[2] = In vivo proton T1 measurement at rat tail, elimination of ProHance® (kidney status); details: intravenous 0.5 mmol/kg ProHance®, 20 MHz, 0.5 Tesla, 40° C.
Description: The measurement site was the tail of the subject rat, which was hung into the sample tube of a Brucker/IBM PC 20 Spin Analyzer (commerically available).
Rat proton T1 data were recorded both before and after intravenous injection of 0.5 mmol/kg ProHance®. The T1 measurements were made by the inversion-recovery method (Fukushima et al., Experimental Pulse NMR, a Nuts and Bolts Approach (Addison-Wesley 1981)) at 20 MHz and 0.5 Tesla at 40° C. with the IBM PC 20 relaxometer by sampling the section of the rat tail about 10 mm from the tip. The proton T1 change upon the injection of ProHance® was followed for 2 hours at 5 minute intervals after injection. The logarithms of the differences in the T1 relaxation rate (reciprocal of T1 relaxation time) before and after injection, log(1/T1 -1/T10), were plotted as a function of time. The elimination halftimes (T1/2) were calculated from the slopes of the log plots. The proton T1 data of a nephrectomized rat were also collected and used for comparison with the behaviour of normal rats (see FIG. 1).
as §1

[3] = normal rats #1 to #7, one value per rat, 2 hours at 5 minute intervals

Molecule | Elimination Halftime T1/2 From ^153 Gd and ^99m Tc [1] [min] | Elimination Halftime T1/2 From Slope ([2]; nephrectomized rat) | Slope of Log (1/T1 - 1/T10) vs Time Plot ([2]; nephrectomized rat) | Elimination Halftime T1/2 From Slope [2, 3] | Slope of Log (1/T1 - 1/T10) vs Time Plot [2, 3]
CC(O)CN1CCN(CC(=O)[O-])CCN(CC(=O)[O-])CCN(CC(=O)[O-])CC1.[Gd+3] (stereo not drawn) [^153 Gd-labeled ProHance®] | 31 | – | – | – | –
CC(O)CN1CCN(CC(=O)[O-])CCN(CC(=O)[O-])CCN(CC(=O)[O-])CC1.[Gd+3] (stereo not drawn) [ProHance®, Gd-hydroxypropyl tetraazacylododecanetriacetic acid] | – | 2,000 ± 4,000 min. | 0.0003 ± 0.0006 | 35 ± 5 min and 32 ± 2 min and 25 ± 4 min and 30 ± 3 min and 36 ± 2 min and 20 ± 2 min | 0.0093 ± 0.0006 and 0.012 ± 0.0020 and 0.010 ± 0.0012 and 0.0083 ± 0.0005 and 0.015 ± 0.0016 and 0.0087 ± 0.0012
technetium-diethylenetriamine pentaacetic acid [^99m Tc(DTPA)] | 31 | – | – | – | –
